Measurements: ChEMBL document CHEMBL3351528, “Targeting dopamine D3 and serotonin 5-HT1A and 5-HT2A receptors for developing effective antipsychotics: synthesis, biological characterization, and behavioral studies” (J Med Chem, 2014)

Legend:
[1] = target: D(2) dopamine receptor (Homo sapiens, UniProt P14416)
Description: Binding affinity to dopamine D2 receptor (unknown origin)

[2] = target: D(3) dopamine receptor (Homo sapiens, UniProt P35462)
Description: Binding affinity to dopamine D3 receptor (unknown origin)

[3] = target: 5-hydroxytryptamine receptor 2A (Homo sapiens, UniProt P28223)
Description: Binding affinity to 5HT2A receptor (unknown origin)

[4] = target: T1, 5-hydroxytryptamine receptor 2C (Homo sapiens, UniProt P28335)
T1 sequence (P28335 whole entry): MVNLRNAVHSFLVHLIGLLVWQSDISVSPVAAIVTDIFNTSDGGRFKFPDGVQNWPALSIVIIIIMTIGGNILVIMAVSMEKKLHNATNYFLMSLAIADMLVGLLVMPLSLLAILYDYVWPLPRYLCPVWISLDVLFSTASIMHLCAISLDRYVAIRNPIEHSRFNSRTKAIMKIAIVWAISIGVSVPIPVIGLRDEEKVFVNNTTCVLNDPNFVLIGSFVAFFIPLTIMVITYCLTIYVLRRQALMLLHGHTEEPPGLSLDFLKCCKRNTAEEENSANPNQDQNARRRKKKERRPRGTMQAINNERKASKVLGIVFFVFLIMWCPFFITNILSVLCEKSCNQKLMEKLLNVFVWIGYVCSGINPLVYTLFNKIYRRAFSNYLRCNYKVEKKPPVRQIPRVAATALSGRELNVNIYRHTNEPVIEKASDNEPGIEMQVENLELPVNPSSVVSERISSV
Description: Binding affinity to 5HT2C receptor (unknown origin)

[5] = target: T2, 5-hydroxytryptamine receptor 1A (Homo sapiens, UniProt P08908)
T2 sequence (P08908 whole entry): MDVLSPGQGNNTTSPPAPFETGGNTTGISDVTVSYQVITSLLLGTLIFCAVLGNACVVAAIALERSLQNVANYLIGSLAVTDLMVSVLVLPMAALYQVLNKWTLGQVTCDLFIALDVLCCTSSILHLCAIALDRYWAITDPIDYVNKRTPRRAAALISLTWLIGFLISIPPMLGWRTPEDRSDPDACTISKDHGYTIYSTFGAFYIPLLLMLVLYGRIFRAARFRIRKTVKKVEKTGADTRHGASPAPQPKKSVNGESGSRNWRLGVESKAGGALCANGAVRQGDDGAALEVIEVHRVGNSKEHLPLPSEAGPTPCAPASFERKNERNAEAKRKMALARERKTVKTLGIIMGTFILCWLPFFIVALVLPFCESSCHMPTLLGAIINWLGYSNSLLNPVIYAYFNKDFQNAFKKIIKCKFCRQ
Description: Binding affinity to 5HT1A receptor (unknown origin)

[6] = species: Mus musculus; assay: animal or person; conditions: NMRI, sc; for minimal effective dose: read-out: MED
Description: Antipsychotic-like activity in sc dosed NMRI mouse assessed as reduction in methamphetamine-induced locomotor activity dosed 15 to 30 mins before administration of methamphetamine measured for 60 mins

[7] = species: Mus musculus; assay: animal or person; conditions: NMRI, sc, read-out: MED
Description: Antipsychotic-like activity in sc dosed NMRI mouse assessed as reduction in PCP-induced locomotor activity dosed 15 to 30 mins before administration of methamphetamine measured for 60 mins

[8] = species: Mus musculus; conditions: in vivo, sc, 0.5 h
Description: Effect on spontaneous exploratory locomotor activity in sc dosed NMRI mouse measured for 30 mins with activity counts each 5 mins

[9] = system: Mus musculus; assay: Antipsychotic-like activity in sc dosed NMRI mouse assessed as reduction in MK801-induced locomotor activity dosed 15 to 30 mins before administration of MK801 measured for 60 mins; type: functional; conditions: read-out: MED
[10] = system: Mus musculus; assay: Toxicity in NMRI mouse assessed as induction of tremors at 30 mg/kg, sc dosed 30 mins before test; type: organism-based; design: dose 30 mg/kg, route subcutaneous; conditions: in vivo, 0.5 h
[11] = system: Mus musculus; assay: Antipsychotic-like activity in orally dosed NMRI mouse assessed as reduction in MK801-induced locomotor activity dosed 15 to 30 mins before administration of MK801 measured for 60 mins; type: functional; conditions: po, read-out: MED
[12] = system: Mus musculus; assay: Effect on spontaneous exploratory locomotor activity in orally dosed NMRI mouse measured for 30 mins with activity counts each 5 mins; type: ADME, organism-based; conditions: in vivo, po, 0.5 h

Sequence of D(2) dopamine receptor (P14416 whole entry): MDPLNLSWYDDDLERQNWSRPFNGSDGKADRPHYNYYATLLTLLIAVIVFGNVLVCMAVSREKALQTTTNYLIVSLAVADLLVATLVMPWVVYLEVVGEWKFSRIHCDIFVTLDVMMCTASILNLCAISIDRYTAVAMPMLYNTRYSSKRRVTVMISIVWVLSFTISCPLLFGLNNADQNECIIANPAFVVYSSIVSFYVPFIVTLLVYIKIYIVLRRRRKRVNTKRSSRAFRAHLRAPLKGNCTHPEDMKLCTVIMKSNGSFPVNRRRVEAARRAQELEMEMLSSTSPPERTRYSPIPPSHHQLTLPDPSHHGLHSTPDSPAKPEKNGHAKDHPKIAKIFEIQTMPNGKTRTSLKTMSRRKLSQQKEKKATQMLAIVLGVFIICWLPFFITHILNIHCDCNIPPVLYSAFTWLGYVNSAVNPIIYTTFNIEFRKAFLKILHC
Sequence of 5-hydroxytryptamine receptor 2A (P28223 whole entry): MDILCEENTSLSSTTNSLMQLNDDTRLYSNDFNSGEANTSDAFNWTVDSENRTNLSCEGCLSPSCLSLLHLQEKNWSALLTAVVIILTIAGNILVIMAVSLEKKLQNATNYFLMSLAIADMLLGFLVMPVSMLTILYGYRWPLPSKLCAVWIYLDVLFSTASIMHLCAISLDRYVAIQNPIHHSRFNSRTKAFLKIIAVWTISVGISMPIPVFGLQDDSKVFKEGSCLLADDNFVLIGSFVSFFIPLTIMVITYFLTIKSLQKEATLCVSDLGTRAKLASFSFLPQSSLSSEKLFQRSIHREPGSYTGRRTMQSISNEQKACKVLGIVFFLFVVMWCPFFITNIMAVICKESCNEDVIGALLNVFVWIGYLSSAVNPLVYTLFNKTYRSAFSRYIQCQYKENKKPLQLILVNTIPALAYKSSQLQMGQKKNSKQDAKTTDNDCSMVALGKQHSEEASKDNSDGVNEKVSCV
Sequence of D(3) dopamine receptor (P35462 whole entry): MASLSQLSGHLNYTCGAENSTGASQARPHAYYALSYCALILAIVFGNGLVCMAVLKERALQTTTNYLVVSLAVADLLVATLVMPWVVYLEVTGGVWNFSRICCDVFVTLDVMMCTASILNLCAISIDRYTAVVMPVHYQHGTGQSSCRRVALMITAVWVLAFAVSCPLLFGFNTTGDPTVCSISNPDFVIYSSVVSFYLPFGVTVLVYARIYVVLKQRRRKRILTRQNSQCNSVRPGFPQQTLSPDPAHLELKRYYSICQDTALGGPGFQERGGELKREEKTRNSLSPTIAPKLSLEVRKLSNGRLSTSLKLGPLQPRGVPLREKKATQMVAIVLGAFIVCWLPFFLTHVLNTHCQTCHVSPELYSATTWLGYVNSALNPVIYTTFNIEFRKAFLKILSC

Ki [1] [nM]	Ki [2] [nM]	Ki [3] [nM]	Ki [4] [nM]	Ki [5] [nM]	MED [8] [mg/kg]	MED [12] [mg/kg]	Structure (SMILES)	minimal effective dose [6] [mg/kg]	minimal effective dose [7] [mg/kg]	minimal effective dose [9] [mg/kg]	Activity [10]	minimal effective dose [11] [mg/kg]	ED50 [6] [mg/kg]	ED50 [8] [mg/kg]
58	0.9	3	6	0.7			O=C(NCCCCN1CCN(c2cccc3ccccc23)CC1)c1ccccc1							
1	40	> 1000	> 1000	> 1000			O=C(NCCCCN1CCN(c2cnc3ccccc3c2)CC1)c1ccccc1							
> 1000	144	100	> 1000	52	3		O=C(NCCCCN1CCN(c2ccccc2)CC1)c1ccccn1	1	> 3					
> 1000	53	17	74	18	10		Cc1cccc(N2CCN(CCCCNC(=O)c3ccc4ccccc4n3)CC2)c1	≤ 1	> 10	10	Toxic			
> 1000	186	69	> 1000	24			O=C(NCCCCN1CCN(c2ccccn2)CC1)c1ccc2ccccc2n1							
> 1000	61	98	475	94			O=C(NCCCCN1CCN(c2ccccc2)CC1)c1ccc2ccccc2n1							
> 1000	55	110	> 1000	6	10		COc1cccc(N2CCN(CCCCNC(=O)c3ccccc3)CC2)n1	0.3	10	3				
> 1000	24	27	61	2			Cc1cccc(N2CCN(CCCCNC(=O)c3cc4ccccc4o3)CC2)n1							
76	0.3	18	79	15			O=C(NCCCCN1CCN(c2ccccc2F)CC1)c1cc2ccccc2o1							
> 1000	31	70	155	26			COc1cccc(N2CCN(CCCCNC(=O)c3ccc4ccccc4n3)CC2)c1							
> 1000	62	216	> 1000	85			O=C(NCCCCN1CCN(c2ccccc2)CC1)c1cccnc1							
> 1000	24	17	400	> 1000			O=C(NCCCCN1CCN(c2ccc(O)cc2)CC1)c1cc2ccccc2cn1							
5600	41	822	1350	16			O=C(NCCCCN1CCN(c2ccccn2)CC1)c1cc2ccccc2cn1							
> 1000	45	22	> 1000	85			O=C(NCCCCN1CCN(c2ccccc2)CC1)[C@@H]1CCc2ccccc2N1							
> 1000	8.8	40	173	17			COc1cccc(N2CCN(CCCCNC(=O)c3cc4ccccc4o3)CC2)c1							
219	1.7	311	311	10			COc1cccc(N2CCN(CCCCNC(=O)c3cc4ccccc4n3C)CC2)c1							
		15.3	206	11.9			Cc1cccc(N2CCN(CCCCNC(=O)c3cc4ccccc4o3)CC2)c1							
> 1000	159	5.1	73.4	43			Cc1cccc(N2CCN(CCCCNC(=O)[C@@H]3CCc4ccccc4N3)CC2)c1							

Ki [1] [nM]	Ki [2] [nM]	Ki [3] [nM]	Ki [4] [nM]	Ki [5] [nM]	MED [8] [mg/kg]	MED [12] [mg/kg]	Structure (SMILES)	minimal effective dose [6] [mg/kg]	minimal effective dose [7] [mg/kg]	minimal effective dose [9] [mg/kg]	Activity [10]	minimal effective dose [11] [mg/kg]	ED50 [6] [mg/kg]	ED50 [8] [mg/kg]
160	3	11	230	11			O=C(NCCCCN1CCN(c2cccc(F)c2)CC1)c1cc2ccccc2cn1							
53	0.2	4	22	1.9			O=C(NCCCCN1CCN(c2cccc(C(F)(F)F)c2)CC1)c1cc2ccccc2[nH]1							
85	0.4	3.6	17	4			Cc1cccc(N2CCN(CCCCNC(=O)c3cc4ccccc4o3)CC2)c1C			30	Toxic			
> 1000	> 1000	240	> 1000	3			Cc1cccc(N2CCN(CCCCNC(=O)c3ccccn3)CC2)n1							
> 1000	200	140	43	8	> 3		COc1cccc(N2CCN(CCCCNC(=O)c3ccccn3)CC2)n1	3	3					
> 1000	16	8	300	73		60	O=C(NCCCCN1CCN(c2ccc(F)cc2)CC1)c1cc2ccccc2cn1					60		
							O=C(CCCN1CCC(O)(c2ccc(Cl)cc2)CC1)c1ccc(F)cc1 [HALOPERIDOL]						0.09	0.08
> 1000	14	1000	479	> 1000			O=C(NCCCCN1CCN(c2cnc3ccccc3c2)CC1)c1cc2ccccc2cn1							
> 1000	204	1230	> 1000	67			O=C(NCCCCN1CCN(c2ncccn2)CC1)c1cc2ccccc2cn1							
> 1000	73	83	> 1000	3	> 3		Cc1cccc(N2CCN(CCCCNC(=O)c3ccccc3)CC2)n1	1	> 3					
> 1000	73	50	> 1000	9.9			O=C(NCCCCN1CCN(c2ccccc2)CC1)[C@H]1CCc2ccccc2N1							
> 1000	40	164	602	59			COc1cccc(N2CCN(CCCCNC(=O)c3c[nH]c4ccccc34)CC2)c1							
3410	122	77	450	117			Cc1cccc(N2CCN(CCCCNC(=O)[C@H]3CCc4ccccc4N3)CC2)c1							
> 1000	560	> 1000	> 1000	> 1000			O=C(NCCCCN1CCN(Cc2ccccc2)CC1)c1cc2ccccc2o1							
> 1000	214	179	> 1000	36			COc1cccc(N2CCN(CCCCNC(=O)c3ccccn3)CC2)c1							
> 1000	12	40	> 1000	26	10		O=C(NCCCCN1CCN(c2ccccc2)CC1)c1cc2ccccc2cn1	≤ 1	3	3				
> 1000	27	238	> 1000	44			COc1cccc(N2CCN(CCCCNC(=O)c3cccc(C)n3)CC2)c1							
> 1000	46	28	57	2			Cc1cccc(N2CCN(CCCCNC(=O)c3cc4ccccc4cn3)CC2)n1							
